Test results as given in a melting point compilation (Tetko et al.; mined from patent text by program, amines drawn as free bases though some values may be those of a salt).

| melting point [°C] | SMILES |
| --- | --- |
| 94 to 96 | COC(=O)C(Oc1ccc(Cl)c2c1CCC2)c1ccc(Oc2ccc(Cl)cc2)cc1 (stereo not given) |
| 217 to 219 | CN1Cc2c(-c3nnc(CN)o3)ncn2-c2ccsc2C1=O |
| 144 to 145 | CC(C)(C)c1cc(CCC(N)=O)cc(-n2nc3ccc(S(=O)(=O)c4ccccc4)cc3n2)c1O |
| 217 to 219 | Fc1ccc(F)c(CN2CCNc3ncc(-c4ccc(N5CCOCC5)cc4)cc32)c1Cl |
| 151 to 153 | O=Cc1cccc2c1nc(-c1c(F)cccc1F)n2Cc1c(F)cccc1F |
| 227 to 230 | N#Cc1ccc(CC(=O)c2c(O)c3cccnc3n(-c3ccccc3)c2=O)cc1 |
| 191 to 193 | Cc1[nH]cnc1CCc1ccc2nc(N)sc2c1 |
| 230 to 232 | COc1cc(F)ccc1N1CCN(CCCn2c(=O)[nH]c3c(c2=O)CCCC3)CC1 |
| 112 | CC(CCCc1ccccc1)n1nnc2c(=O)[nH]c(Cc3ccccc3)nc21 (stereo not given) |
| 140 to 145 | Cn1cc2c(n1)-c1cnn(C)c1CC2 |
| 230 to 232 | COc1ccc(-c2c(C(=O)O)c(=O)n(C)c3ccc(Cl)cc23)cc1OC |
| 215 to 218 | O=C1Nc2cc(Cl)c(Cl)cc2C1(Br)c1ccccc1Cl (stereo not given) |
| 159 to 161 | Clc1nccc(-n2ccc3c(SCc4ccccc4)cccc32)n1 |
| 235 to 237 | CC1(C)Nc2ccc3c(c2N1)C(=O)c1ccccc1C3=O |
| 195 to 198 | c1ncn(Cc2nc(-c3ccc4c(c3)OCO4)c3cc4c(cc3n2)OCO4)n1 |
| 91 to 93 | COC(=O)c1cccnc1Cn1cccc1C=O |
| 154 to 155 | COc1cc(Cn2cc3c(CC(C)C)nn(C)c(=O)c3c2)cc(OC)c1OC |
| 217 to 218 | Cc1ccn2cc(CN3CCN(c4ccc(C(N)=O)cc4)CC3)nc2c1 |
| 172 | Cn1c(C(F)(F)F)cc(=O)n(-c2cc(S(=O)(=O)n3cccn3)c(Cl)cc2F)c1=O |
| 92 to 94 | COc1ccc(C(=O)c2ccccn2)cc1CCl |

More lines, now with the values behind:

| SMILES | melting point [°C] |
| --- | --- |
| O=C(NCCO[N+](=O)[O-])c1ccoc1 | 80 to 82 |
| COc1ccc(C(=O)Nc2ccccc2)cc1NC(=S)NC(=O)c1ccccc1 | 219 to 222 |
| COC(=O)C(C(C)=O)=C(N)C(F)(F)F | 63 to 65 |
| CN1CCC(OC2c3ccccc3CCn3c2nc(-c2ccccc2)c3C(N)=O)CC1 (stereo not given) | 102 |
| N#Cc1ccccc1N1CCC2(CC1)OCCO2 | 134 to 135 |
| O=C(c1ccccc1)c1ccc(C(=O)c2ccc(C(=O)c3ccccc3)cc2)cc1 | 224 to 228 |
| CC(=O)OC1CCC2(C)C(=CC(=O)C3C2CCC2(C)C(C(C)CCCC(C)(C)C)CCC32)C1 (stereo not given) | 183 to 186 |
| C[C@H](CSC(=O)c1ccccc1)C(=O)N1C(=O)N(Cc2ccccc2)C[C@H]1C(=O)O | 145 |
| CN1CCC(OC(c2cccc(SCC3=NCCN3)c2)c2nc3ccccc3[nH]2)CC1 (stereo not given) | 62 |
| FC(F)(F)c1cccc(-c2ccc3nnc(C(F)(F)F)n3n2)c1 | 189 |
| N#Cc1c(N2CCCCC2)cc(-c2ccccc2)c2c1-c1ccccc1C2 | 156 |
| CCCCCCC(=O)CCCC=O | 33 to 34 |
| CS(=O)(=O)c1cc(C(=O)O)cc(NCc2ccccc2)c1Cl | 254 to 256 |
| CCCCN(C(=O)C1CC1)c1nnc(C)s1 | 82 to 84 |
| NC(=O)c1c(I)c(C(=O)N(CC(O)CO)CC(O)CO)c(I)c(N2CCCCC2=O)c1I (stereo not given) | 214 to 219 |
| CC(CCC=O)C1CCC2C3CC=C4CC(O)CC(O)C4(C)C3CCC12C (stereo not given) | 120 to 122 |
| CC(COc1ccccc1C1NC(C(=O)O)CS1)O[N+](=O)[O-] (stereo not given) | 127 to 130 |
| CNS(=O)(=O)c1ccc(Oc2ccc(Cl)cc2)cc1 | 80 to 83 |
| Cc1ccc(N2Cc3ccccc3P2(=O)C(C)C)cc1 (stereo not given) | 135 to 137 |
| NC(=O)c1c(-c2cccc(F)c2)c(Br)n2c1CNCC2 | 216 to 218 |
